The assay concerns production of TNF by monocytes activated with bacterial lipopolysaccharide (LPS). In words: Lipopolysaccharide-activated monocyte TNF production assay. In kind it is cell-based. The conditions noted are these: Homo sapiens; whole blood monocyte assay (LPS induced TNF release). Put shortly:
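Adherent human PBMC-derived monocytes preincubated 60 min with nine two-fold compound dilutions, then stimulated with E. coli K532 LPS (30 ng/mL in the added medium) for 4 h at 37 °C. Supernatant TNF measured by sandwich ELISA; IC50 is the compound concentration halving TNF production, from second-order polynomial fits.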

The term IC50 denotes the concentration that inhibits the measured activity by half. A higher IC50 goes with weaker potency. Consider `Cc1ccc(C(=O)N(C)C)cc1-c1ccc2c(N3CCOCC3)nncc2c1` [Example 265, N,N,4-trimethyl-3-(1-morpholin-4-ylphthalazin-6-yl)benzamide], for which the IC50 was at most 5 µM.

In turn, `Fc1ccc(Oc2ccc3c(-c4ccsc4)nncc3c2)cc1` [Example 337, 6-(4-fluorophenoxy)-1-thien-3-ylphthalazine] returned an IC50 of at most 5 µM.

The compound `Cc1ccc(C(=O)NC2CC2)cc1-c1ccc2c(-c3ccc(C(F)(F)F)cc3Cl)nncc2c1` [Example 219, 3-{1-[2-chloro-4-(trifluoromethyl)phenyl]phthalazin-6-yl}-N-cyclopropyl-4-methylbenzamide] registered an IC50 of at most 5 µM.

`CC(=O)c1nnc(C)c2cc(-c3cc(C(=O)NC4CC4)ccc3C)ccc12` [Example 84, 3-(1-Acetyl-4-methylphthalazin-6-yl)-N-cyclopropyl-4-methylbenzamide] had an IC50 of at most 5 µM.

Take `Cc1ccc(C(=O)NC2CC2)cc1-c1ccc2c(-c3ccc(C(F)(F)F)cc3C(F)(F)F)nncc2c1` [Example 11, 3-(1-(2,4-bis(trifluoromethyl)phenyl)phthalazin-6-yl)-N-cyclopropyl-4-methylbenzamide]: the IC50 was at most 5 µM.

`Cc1ccc(C(=O)NC2CC2)cc1-c1ccc2c(NCCCN3CCCC3=O)nncc2c1` [Example 310, N-cyclopropyl-4-methyl-3-(1-{[3-(2-oxopyrrolidin-1-yl)propyl]amino}phthalazin-6-yl)benzamide] returned an IC50 of at most 5 µM.

On to `CC[C@H](C)Nc1nncc2cc(-c3cc(C(N)=O)ccc3C)ccc12` [Example 303, 4-methyl-3-(1-{[(1S)-1-methylpropyl]amino}phthalazin-6-yl)benzamide], for which the IC50 was at most 5 µM.

Consider `Cc1ccc(C(=O)NC2CC2)cc1-c1ccc2c(NC3CCOCC3)nncc2c1` [Example 329, N-cyclopropyl-4-methyl-3-[1-(tetrahydro-2H-pyran-4-ylamino)phthalazin-6-yl]benzamide], for which the concentration for half-maximal inhibition (IC50) was at most 5 µM.

`Cc1cc(F)ccc1Oc1nncc2cc(-c3cc(C(N)=O)ccc3C)ccc12` [Example 320, 3-[1-(4-fluoro-2-methylphenoxy)phthalazin-6-yl]-4-methylbenzamide] yielded an IC50 of at most 5 µM.

Take `Cc1ccc(C(=O)NC2CC2)cc1-c1ccc2c(C(N)=O)nncc2c1` [Example 83, 6-{5-[(Cyclopropylamino)carbonyl]-2-methylphenyl}phthalazine-1-carboxamide]: the IC50 was at most 5 µM.

`Cc1ccc(C(N)=O)cc1-c1ccc2c(-c3cccnc3C)nncc2c1` [Example 255, 4-methyl-3-[1-(2-methylpyridin-3-yl)phthalazin-6-yl]benzamide] displayed an IC50 of at most 5 µM.

For the compound `Cc1ccc(C(=O)NC2CC2)cc1-c1ccc2c(NC3CCC(O)CC3)nncc2c1` (stereo not shown) [Example 312, N-cyclopropyl-3-{1-[(4-hydroxycyclohexyl)amino]phthalazin-6-yl}-4-methylbenzamide], the IC50 was at most 5 µM.

`Cc1ccc2c(N)noc2c1-c1ccc2c(NC(C)C)nncc2c1` [Example 385, 6-(3-amino-6-methyl-1,2-benzisoxazol-7-yl)-N-isopropylphthalazin-1-amine] came in with an IC50 of at most 5 µM.

Compound `COc1ccc(-c2nncc3cc(-c4cc(C(=O)NC5CC5)ccc4C)ccc23)c(C(F)(F)F)c1` [Example 258, N-cyclopropyl-3-{1-[4-methoxy-2-(trifluoromethyl)phenyl]phthalazin-6-yl}-4-methylbenzamide] displayed an IC50 of at most 5 µM.

The compound `COc1ncncc1-c1nncc2cc(-c3cc(C(N)=O)ccc3C)ccc12` [Example 196, 3-[1-(4-methoxypyrimidin-5-yl)phthalazin-6-yl]-4-methylbenzamide] returned a concentration for half-maximal inhibition (IC50) of at most 5 µM.

As for `Cc1ccc(C(=O)NC2CC2)cc1-c1ccc2c(NC3CCCC3)nncc2c1` [Example 325, 3-[1-(cyclopentylamino)phthalazin-6-yl]-N-cyclopropyl-4-methylbenzamide], the IC50 is at most 5 µM.

As to `Cc1ccc(C(N)=O)cc1-c1ccc2c(N3CCN4C(=O)CC[C@H]4C3)nncc2c1` [Example 285, 3-{1-[(8aS)-6-oxohexahydropyrrolo[1,2-a]pyrazin-2(1H)-yl]phthalazin-6-yl}-4-methylbenzamide], the IC50 was at most 5 µM.

Take `Cc1ccc(C(N)=O)cc1-c1ccc2c(N3CCNC[C@@H]3C)nncc2c1` [Example 146, 4-methyl-3-{1-[(2S)-2-methylpiperazin-1-yl]phthalazin-6-yl}benzamide]: the IC50 is at most 5 µM.

`Cc1ccc(C(=O)NC2CC2)cc1-c1ccc2c(N3CCN4C(=O)OC[C@@H]4C3)nncc2c1` [Example 101, 3-{1-[(8aS)-3-oxotetrahydro[1,3]oxazolo[3,4-a]pyrazin-7(1H)-yl]phthalazin-6-yl}-N-cyclopropyl-4-methylbenzamide] showed an IC50 of at most 5 µM.

Consider `Cc1ccc(C(=O)NC2CC2)cc1-c1ccc2c(N3CCNCC3)nncc2c1` [Example 165, N-cyclopropyl-4-methyl-3-(1-piperazin-1-ylphthalazin-6-yl)benzamide], for which the half-maximal inhibitory concentration (IC50) is at most 5 µM.

As to `CCOC(=O)c1ccc(C)c(-c2ccc3c(C(C)C)nncc3c2)c1` [Example 362, ethyl 3-(1-isopropylphthalazin-6-yl)-4-methylbenzoate], the IC50 is at most 5 µM.

In turn, `Cc1ccc(C(=O)NC2CC2)cc1-c1ccc2c(N3C[C@@H]4C[C@H]3CN4)nncc2c1` [Example 125, N-cyclopropyl-3-{1-[(1S,4S)-2,5-diazabicyclo[2.2.1]hept-2-yl]phthalazin-6-yl}-4-methylbenzamide] registered an IC50 of at most 5 µM.

In turn, `Cc1ccc(C(=O)NC2CC2)cc1-c1ccc2c(N3CCNC(=O)[C@H]3C)nncc2c1` [Example 100, N-cyclopropyl-4-methyl-3-{1-[(2R)-2-methyl-3-oxopiperazin-1-yl]phthalazin-6-yl}benzamide] showed an IC50 of at most 5 µM.

In turn, `Cc1ccc(C(=O)NC(C)C)cc1-c1ccc2c(N3CCOCC3)nncc2c1` [Example 405, N-isopropyl-4-methyl-3-(1-morpholin-4-ylphthalazin-6-yl)benzamide] showed an IC50 of at most 5 µM.

The compound `Cc1ccc(C(=O)NC2CC2)cc1-c1ccc2c(N3CCc4c(O)n[nH]c4C3)nncc2c1` [Example 103, N-cyclopropyl-3-(1-(3-hydroxy-4,5-dihydro-1H-pyrazolo[3,4-c]pyridin-6(7H)-yl)phthalazin-6-yl)-4-methylbenzamide] came in with an IC50 of at most 5 µM.

For the compound `Cc1ccc(C(N)=O)cc1-c1ccc2c(N3CCOC[C@@H]3C)nncc2c1` [Example 184, 4-methyl-3-{1-[(3S)-3-methylmorpholin-4-yl]phthalazin-6-yl}benzamide], the IC50 is at most 5 µM.

In turn, `Cc1ccc(C(N)=O)cc1-c1ccc2c(N3CCOC[C@H]3C)nncc2c1` [Example 82, 4-Methyl-3-{1-[(3R)-3-methylmorpholin4-yl]phthalazin-6-yl}benzamide] returned an IC50 of at most 5 µM.

As to `Cc1ccc(C(N)=O)cc1-c1ccc2c(Oc3cccc(Cl)c3)nncc2c1` [Example 307, 3-[1-(3-chlorophenoxy)phthalazin-6-yl]-4-methylbenzamide], the IC50 is at most 5 µM.

Regarding `Cc1ccc(C(=O)NC2CC2)cc1-c1ccc2c(-c3ccc(Cl)cc3)nncc2c1` [Example 209, 3-[1-(4-chlorophenyl)phthalazin-6-yl]-N-cyclopropyl-4-methylbenzamide], the IC50 is at most 5 µM.

`Fc1ccc(Oc2ccc3c(N4CCOCC4)nncc3c2)cc1` [Example 336, 6-(4-fluorophenoxy)-1-morpholin-4-ylphthalazine] registered a 50% inhibitory concentration (IC50) of at most 5 µM.

Regarding `COCCNc1nncc2cc(-c3cc(C(=O)NC4CC4)ccc3C)ccc12` [Example 194, N-cyclopropyl-3-{1-[(2-methoxyethyl)amino]phthalazin-6-yl}-4-methylbenzamide], the IC50 is at most 5 µM.

Consider `Fc1ccc(Oc2ccc3c(-c4cncnc4)nncc3c2)cc1` [Example 351, 6-(4-fluorophenoxy)-1-pyrimidin-5-ylphthalazine], for which the IC50 is at most 5 µM.

As for `CC[C@@H]1CCCCN1c1nncc2cc(-c3cc(C(=O)NC4CC4)ccc3C)ccc12` [Example 130, N-cyclopropyl-3-{1-[(2R)-2-ethylpiperidin-1-yl]phthalazin-6-yl}-4-methylbenzamide], the IC50 is at most 5 µM.

For `Cc1ccc(C(=O)NC2CC2)cc1-c1ccc2c(-c3ccc(S(C)(=O)=O)cc3C)nncc2c1` [Example 256, N-cyclopropyl-4-methyl-3-{1-[2-methyl-4-(methylsulfonyl)phenyl]phthalazin-6-yl}benzamide], the IC50 was at most 5 µM.

Consider `Cc1ccc(C(N)=O)cc1-c1ccc2c(NC3CCCC3)nncc2c1` [Example 323, 3-[1-(cyclopentylamino)phthalazin-6-yl]-4-methylbenzamide], for which the IC50 was at most 5 µM.

With `Cc1ccc(C(=O)NC2CC2)cc1-c1ccc2c(N3CCC(C)(O)CC3)nncc2c1` [Example 152, N-cyclopropyl-3-[1-(4-hydroxy-4-methylpiperidin-1-yl)phthalazin-6-yl]-4-methylbenzamide], the IC50 is at most 5 µM.

`Cc1ccc(C(=O)NC2CC2)cc1-c1ccc2c(OC3CCCN(C)C3)nncc2c1` (stereo not shown) [Example 317, N-cyclopropyl-4-methyl-3-{1-[(1-methylpiperidin-3-yl)oxy]phthalazin-6-yl}benzamide] registered an IC50 of at most 5 µM.

Turning to `Cc1cc(C)c(-c2nncc3cc(-c4cc(C(=O)NC5CC5)ccc4C)ccc23)c(C)c1` [Example 121, N-cyclopropyl-3-(1-mesitylphthalazin-6-yl)-4-methylbenzamide], the IC50 is at most 5 µM.

In the case of `Cc1ccc(C(N)=O)cc1-c1ccc2c(-c3ccc(F)cc3C)nncc2c1` [Example 217, 3-[1-(4-fluoro-2-methylphenyl)phthalazin-6-yl]-4-methylbenzamide], the IC50 is at most 5 µM.

As to `Cc1ccc(C(=O)NC2CC2)cc1-c1ccc2c(N3C[C@@H]4C[C@H]3CN4C(=O)OC(C)(C)C)nncc2c1` [Example 126, tert-butyl (1S,4S)-5-(6-{5-[(cyclopropylamino)carbonyl]-2-methylphenyl}phthalazin-1-yl)-2,5-diazabicyclo[2.2.1]heptane-2-carboxylate], the half-maximal inhibitory concentration (IC50) is at most 5 µM.

For the origin of these results see patent US7759337B2, “Phthalazine compounds and methods of use” (Amgen Inc., priority 2005, dated 2010).
